Marks after values point to notes of the source that are not given here.
Columns and labels:
superoxide dismutase = assay: Antioxidant capacity: superoxide dismutase in exercised rats; type: in vivo, rat; conditions: 6 weeks
Experimental: Fifty-six (56) Male Wistar rats that were 8-week old were obtained. The rats were reared at the temperature of 22 ± 2° C., the humidity of 55 ± 5%, and with a 12-hrs light-12-hrs dark cycle. All procedures involving rats were conducted in strict compliance with the relevant laws, the Animal Welfare Act, Public Health Services Policy, and guidelines established by the Institutional Animal Care and Use Committee of the Institute of the contracted University which completed the study.
After a week of the adaptation period, the rats were divided into eight equal groups containing seven rats each. The initial body weights of the rats were similar in all the groups (214.53 grams ± 4.67; P > 0.05).
Groups 1 and 2 were not subjected to an exercise routine. Groups 3-8 were subjected to an exercise regimen consisting of a week training period with an incremental exercise capacity described below. After the week training period the exercise regimen followed was each rat in Groups 3-8 were subjected to 6 weeks of running at 25 m/min during 45 min […]. […] These correspond to 0, 250, 500, 1000, 2000 and 4000 mg per day for humans, respectively.
The exercised rats were subjected to treadmill exercise on a motorized rodent treadmill (Commat Limited, Ankara, Turkey). The treadmill contained a stimulus grid at the back end of the treadmill giving an electric shock when the animal placed its paw on the grid. […] To eliminate the diurnal variations, all exercise tests were applied during the same time of the day. The week of training period was provided as pre-training practice for the animals to get familiar with the treadmill equipment and handling. In doing so, the rats in the exercise training groups were accustomed by treadmill exercise over 5 days such that: (i) 1st day, 10 m/min for 10 min, (ii) 2nd day, 20 m/min for 10 min, (iii) 3rd day, 25 m/min for 10 min, (iv) 4th day, 25 m/min for 20 min and (v) 5th day, 25 m/min for 30 min. After the training period, the rats in treadmill exercise groups ran on the treadmill 25 m/min for 45 min/ per day and five days per week for 6 weeks according to the protocol described by Sahin et al. Capsaicinoids Improve the Consequences of Physical Activity. Toxicol Rep. 2018;5:598-607, which is hereby incorporated by reference.
The exercise regimen was used to induce an inflammation and oxidative stress conditions. […] The results of malondialdehyde, superoxide dismutase, catalase, and glutathione peroxidase for each rat group are shown in TABLE 2.

ACE-2 [1] = assay: ACE-2 surface protein in Calu-3 cells, flow cytometry; type: cell-based, human; conditions: Calu-3, 100 uM, 24-hr pre-treatment
Experimental: ACE-2 surface expression protein in Calu-3 cells was evaluated using FACS flow cytometry sorting. […] Cells were detached with PBS/EDTA at room temperature. FBS-containing growth media was added to cells to inactivate TE. Cells were spun for 5 min at […]. Supernatant was removed and cells were washed twice in flow buffer (PBS+0.2% FBS). Between 100,000-200,000 cells were stained for ACE-2 and BST2 (absent in Calu-3and used as a control) for 30 min on ice using goat anti-ACE-2 (R&D Systems; AF933) and PE-conjugated BST2 (BioLegend; Cat # 348406). Cells were washed once and stained with Alexa Fluor 647 donkey anti-goat for 30 min on ice. Cells were washed once, resuspended in PBS/EDTA and samples were acquired on a FACS LSR Fortessa cytometer (BD Bioscience). Data were analyzed using Flowjo (Version 10.1).
The testing was repeated with D-Carnitine as well. Cells were either stained for ACE2 using either anti-ACE2 Ab, anti-BST2 Ab or the combination or both followed by secondary Ab isotype. […] The table represents the fluorescence counts.

ACE-2 [2] = assay: ACE-2 mRNA expression in Calu-3, RT real-time PCR; type: cell-based, human; conditions: Calu-3, 50 to 1,000 uM, 24 hr pre-treatment
Experimental: To quantify the human gene expression, Calu-3 seeded in a 12-well plate (220,000 cells) were stimulated with 100 uM, 500 uM and 1000 uM Carnitine alone for 24 h. RNA was extracted using TRIzol (Qiagen) as per standard protocol and total RNA was reverse transcribed using SuperScript II RT (Invitrogen). Expression levels of ACE-2 and TMPRSS2 were evaluated by SYBR real-time PCR using gene-specific primers as previously reported (Ma et al., Eye 2020;34:1212). GAPDH was used as an internal normalizer. […] Fold change in expression relative to that in untreated cells was determined using the standard ddCt method.

## C[N+](C)(C)C[C@H](O)CC(=O)[O-] [L-carnitine]
Superoxide dismutase; Car200: 200 mg/kg oral gavage, no exercise
  SOD: 95.87±2.47^cd U/mg protein
Superoxide dismutase; Ex+Car25: exercise, 25 mg/kg oral gavage
  SOD: 96.49±0.78^cd U/mg protein
Superoxide dismutase; Ex+Car50: exercise, 50 mg/kg oral gavage
  SOD: 102.89±2.69^bc U/mg protein
Superoxide dismutase; Ex+Car100: exercise, 100 mg/kg oral gavage
  SOD: 109.68±2.49^ab U/mg protein
Superoxide dismutase; Ex+Car200: exercise, 200 mg/kg oral gavage
  SOD: 114.56±2.70^a U/mg protein
Superoxide dismutase; Ex+Car400: exercise, 400 mg/kg oral gavage
  SOD: 120.16±3.58^a U/mg protein
ACE-2 [1]
  decrease in the ACE-2 protein at the cell surface: about 75%
ACE-2 [2]
  ACE-2 mRNA levels: statistically significant downregulation

Source: patent US20230346735A1, “Nutritional Composition Comprising Carnitine and Method for Treating or Preventing an Infection in a Mammal” (priority 2020, published 2023)
